From patent US20140066303A1, “COMPOSITIONS AND METHODS FOR IMPROVING THE COMPATIBILITY OF WATER SOLUBLE HERBICIDE SALTS” (DOW AGROSCIENCES LLC, priority 2012, published 2014)

Key:
Type in all cases: physicochemical
[1] = Critical Crystallization Concentration (CCC) of 2,4-D DMEA in spray mixtures with glyphosate potassium salt; conditions: 2,4-D DMEA + Roundup PowerMax 1:1 AE; no SAC, control sample; 342 ppm water; 24 h ambient
Text: (§1) Alternatively, the relative effectiveness of the surface active compatibilizers described herein at improving the compatibility of the aqueous herbicide solutions described herein can be determined by measuring the Critical Crystallization Concentration (CCC) of the aryloxyalkanoic acid salt, the pyridyloxyalkanoic acid salt, the arylcarboxylic acid salt, or the heteroarylcarboxylic acid salt of an inorganic cation such as, for example, the potassium salt of 2,4-D in a tank mix solution. The CCC of a particular composition can be measured by preparing saturated and over saturated solutions or mixtures of the composition and then measuring the concentration of the particular herbicidal carboxylic acid remaining in solution. […]
(§2) The CCC of 2,4-D compositions were measured using the following method. […] The CCC was determined by measuring the X-intercept of the extrapolated linear function of the crystal weight vs. 2,4-D wt % AE concentration. […] The amounts of 2,4-D and glyphosate salts were added to achieve desired AE concentrations of 2,4-D and glyphosate at 1:1 ratio, and the amount of water was calculated as a balance ingredient to achieve the final mixture volume of 100 ml. • 7. […]

[2] = Critical Crystallization Concentration (CCC) of 2,4-D DMA in spray mixtures with glyphosate potassium salt; conditions: 2,4-D DMA + Roundup PowerMax 1:1 AE; no SAC, control sample; 342 ppm hardness water; 24 h ambient
Text: as §1, §2

[3] = On-set pH of crystallization (OSPOC) of aqueous 2,4-D potassium solution, titration with sulfuric acid; conditions: 3% AE w/w 2,4-D K in water; control, no SAC (0.0%); pH lowered with 0.2 N sulfuric acid
Text: Without intending to be bound by theory, the surface active compatibilizers described herein are believed to improve the compatibility of aqueous herbicide solutions comprised of at least one of a water soluble salt of an aryloxyalkanoic acid, a water soluble salt of a pyridyloxyalkanoic acid, a water soluble salt of an arylcarboxylic acid, a water soluble salt of a heteroarylcarboxylic acid and a water soluble salt of glyphosate, a suitable concentration of one or more inorganic cations, and a pH of less than about 6.5 by preventing or inhibiting the crystallization or precipitation of solids. The relative effectiveness of the surface active compatibilizers in preventing the formation of these solids can be estimated by measuring the on-set pH of crystallization (OSPOC) of the solids in a titration analysis procedure. The OSPOC of a particular composition can be measured, for example, by titrating a solution of an aryloxyalkanoic or a pyridyloxyalkanoic acid salt of an inorganic cation such as, for example, the potassium salt of 2,4-D with a strong acid such as, for example, sulphuric acid until solids or crystals begin forming at a particular pH value (the OSPOC). […]

CN(C)CCO.O=C(O)COc1ccc(Cl)cc1Cl [2,4-D DMEA, 2,4-D dimethylethanol ammonium salt]
2,4-D CCC [1]: 1.04% AE

CNC.O=C(O)COc1ccc(Cl)cc1Cl [2,4-D DMA, 2,4-D dimethyl ammonium salt]
2,4-D CCC [2]: 0.89% AE

O=C([O-])COc1ccc(Cl)cc1Cl.[K+] [2,4-D K, 2,4-D potassium]
On-Set pH of Crystallization (OSPOC) [3]: 6.16
